Data set [1] in a line: Toxicity in nude mouse xenografted with human SK-BR-3 cells assessed as heart damage at 8 micromol/kg, iv administered every 3 days for 14 days by H and E staining based analysis. It is filed as organism-based. To be noted: in vivo, 336 h, dose 8 µmol/kg, time 14 day.
Data set [2] is described as follows: Metabolic stability in Sprague-Dawley rat plasma assessed as half life incubated for 120 mins by LC-MS/MS analysis. It is filed as ADME, cell-free.
Data set [3] in a line: Toxicity in nude mouse xenografted with human SK-BR-3 cells assessed as kidney damage at 8 micromol/kg, iv administered every 3 days for 14 days by H and E staining based analysis. It is filed as organism-based. As to conditions: in vivo, 336 h, dose 8 µmol/kg, time 14 day.
Data set [4] relates to SK-BR-3. Put plainly: Induction of apoptosis in human SK-BR-3 cells assessed as early apoptotic cells at 2 uM incubated for 24 hrs by Annexin V-FITC/PI staining based flow cytometry analysis (Rvb= 4.37%). It is filed as functional.
The subject of a further data set is MDA-MB-231. Put plainly: Cytotoxicity against HER-negative human MDA-MB-231 cells assessed as inhibition of cell growth incubated for 48 hrs by MTT assay. It is filed as functional, cell-based. To be noted: MDA-MB-231, 48 h.
The target in data set [5] is T1, DNA topoisomerase 1 (Homo sapiens) (UniProt P11387).
T1 sequence (whole entry): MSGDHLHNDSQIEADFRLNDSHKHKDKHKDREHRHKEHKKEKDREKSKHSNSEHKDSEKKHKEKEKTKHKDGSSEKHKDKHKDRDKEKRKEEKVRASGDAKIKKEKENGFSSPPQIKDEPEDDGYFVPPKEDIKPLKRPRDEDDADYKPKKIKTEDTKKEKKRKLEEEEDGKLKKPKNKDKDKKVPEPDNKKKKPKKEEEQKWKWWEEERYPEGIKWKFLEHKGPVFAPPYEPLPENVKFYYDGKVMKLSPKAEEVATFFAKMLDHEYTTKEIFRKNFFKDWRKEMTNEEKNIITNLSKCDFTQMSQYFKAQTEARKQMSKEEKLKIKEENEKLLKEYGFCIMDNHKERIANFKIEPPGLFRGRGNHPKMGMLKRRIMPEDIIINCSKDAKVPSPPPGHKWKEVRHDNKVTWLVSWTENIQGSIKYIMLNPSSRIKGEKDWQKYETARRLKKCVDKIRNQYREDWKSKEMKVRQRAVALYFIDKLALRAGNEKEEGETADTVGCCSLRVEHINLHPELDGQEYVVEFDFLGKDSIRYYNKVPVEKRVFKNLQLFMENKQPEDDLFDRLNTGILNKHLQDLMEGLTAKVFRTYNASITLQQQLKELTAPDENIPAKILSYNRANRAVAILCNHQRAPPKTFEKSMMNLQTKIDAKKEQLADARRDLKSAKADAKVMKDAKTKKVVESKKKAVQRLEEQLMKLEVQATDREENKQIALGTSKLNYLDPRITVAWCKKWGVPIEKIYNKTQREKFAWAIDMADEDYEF
Description: Inhibition of topoisomerase 1 (unknown origin) assessed as relaxation of supercoiled plasmid pBR322 DNA at 10 uM preincubated for 20 mins followed by pBR322 DNA addition and measured after 30 mins by agarose gel electrophoresis analysis. To be noted: time 50.0 min.

Data set [6] is described as follows: Toxicity in nude mouse xenografted with human SK-BR-3 cells assessed as liver damage at 8 micromol/kg, iv administered every 3 days for 14 days by H and E staining based analysis. It is filed as organism-based. As to conditions: in vivo, 336 h, dose 8 µmol/kg, time 14 day.
Data set [7] is described as follows: Toxicity in nude mouse xenografted with human SK-BR-3 cells assessed as inflammatory cell infiltration at 8 micromol/kg, iv administered every 3 days for 14 days by H and E staining based analysis. As to conditions: in vivo, 336 h, dose 8 µmol/kg, time 14 day. It is filed as organism-based.
For data set [8], the system named is SK-BR-3. Description: Induction of apoptosis in human SK-BR-3 cells assessed as dead cells at 1 uM incubated for 24 hrs by Annexin V-FITC/PI staining based flow cytometry analysis (Rvb= 1.21%). The data set is classed as functional.
Data set [9] concerns SK-BR-3. Put plainly: Induction of apoptosis in human SK-BR-3 cells assessed as dead cells at 2 uM incubated for 24 hrs by Annexin V-FITC/PI staining based flow cytometry analysis (Rvb= 1.21%). It is filed as functional.
Data set [10] in a line: Drug metabolism in human SK-BR-3 cells assessed as camptothecin release at 50 uM measured after 4 hrs by LC-MS/MS analysis. It is filed as ADME, cell-based. To be noted: sk-br-3, 4 h.
Data set [11] has as its system SK-BR-3. Put plainly: Induction of apoptosis in human SK-BR-3 cells assessed as late apoptotic cells at 2 uM incubated for 24 hrs by Annexin V-FITC/PI staining based flow cytometry analysis (Rvb= 5.02%). The data set is classed as functional.
The next data set deals with NCI-N87. Put plainly: Cytotoxicity against HER-positive human NCI-N87 cells assessed as inhibition of cell growth incubated for 48 hrs by MTT assay. To be noted: NCI-N87, 48 h. It is filed as functional, cell-based.
Data set [12] is described as follows: Hemolytic activity in rat erythrocytes at 3.125 to 100 uM by microplate reader analysis relative to control. The data set is classed as toxicity, cell-based, Erythrocyte. As to conditions: dose 3.125-100 µM, read-out: Activity.

These results are taken from ChEMBL document CHEMBL5096235, “In Silico Exploration and Biological Evaluation of Bispecific Peptides Derived from Anti-HER2 Antibodies and Peptide-Camptothecin Conjugates for HER2-Positive Breast Cancer” (J Med Chem, 2022).

The source made the active and inactive calls. No cut-off for these calls is given here. Residues, ends and D or L forms follow the SMILES beside them. *: point of attachment. S(CH2)2OCO2(CPT-20-yl) = CC[C@@]1(OC(=O)OCCS*)C(=O)OCc2c1cc1n(c2=O)Cc2cc3ccccc3nc2-1

Regarding `CC[C@H](C)[C@H](NC(=O)[C@@H](N)CCCNC(=N)N)C(=O)N[C@@H](CCCCN)C(=O)N1CCC[C@H]1C(=O)N[C@@H](CCCNC(=N)N)C(=O)N[C@@H](CCCCN)C(=O)NCC(=O)N[C@@H](Cc1ccc(O)cc1)C(=O)N[C@H](C(=O)N[C@@H](CCCNC(=N)N)C(=O)NCC(=O)N[C@@H](CSSCCOC(=O)O[C@]1(CC)C(=O)OCc2c1cc1n(c2=O)Cc2cc3ccccc3nc2-1)C(=O)NCC(=O)N[C@@H](CSSCCOC(=O)O[C@]1(CC)C(=O)OCC2=C1C=C1c3nc4ccccc4cc3NC1C2=O)C(=O)NC(=O)C[C@H](NC(=O)CN)C(=O)N1CCC[C@H]1C(=O)N[C@@H](CC(N)=O)C(=O)N[C@@H](Cc1c[nH]c2ccccc12)C(=O)NCC(=O)N[C@@H](CCCNC(=N)N)C(=O)N[C@@H](CO)C(=O)N[C@@H](Cc1c[nH]c2ccccc12)C(=O)N[C@@H](Cc1ccc(O)cc1)C(=O)N[C@@H](CC(N)=O)C(=O)N[C@@H](CCC(N)=O)C(=O)N[C@@H](CCCNC(=N)N)C(=O)N[C@@H](Cc1ccccc1)C(=O)N[C@@H](CCCCN)C(N)=O)[C@@H](C)O` (stereo partly specified), the Activity entry in data set [1] is listed as “Non-Toxic”; in [3], “Non-Toxic”; in the data set on SK-BR-3 [4], 41%; in [6] it was “Non-Toxic”; in [7] it was “Non-Toxic”; in the data set on SK-BR-3 [8], 0.49%. Further, the values for the Activity in the data set with SK-BR-3 [9] and in the data set on SK-BR-3 [11] were 0.28% and 14%, respectively. The half-life in data set [2] was 15 min. In addition, the IC50 with MDA-MB-231 came out at 7.72 µM; with NCI-N87, 1.78 µM. In addition, the inhibition entry in data set [5] was “Active”. Moreover, the Drug metabolism entry in data set [10] was “Metabolite_Detected”.

For the molecule `CC[C@H](C)[C@H](NC(=O)[C@@H](N)CCCNC(=N)N)C(=O)N[C@@H](CCCCN)C(=O)N1CCC[C@H]1C(=O)N[C@@H](CCCNC(=N)N)C(=O)N[C@@H](CCCCN)C(=O)NCC(=O)N[C@@H](Cc1ccc(O)cc1)C(=O)N[C@H](C(=O)N[C@@H](CCCNC(=N)N)C(=O)NCC(=O)N[C@@H](CSSCCOC(=O)O[C@]1(CC)C(=O)OCc2c1cc1n(c2=O)Cc2cc3ccccc3nc2-1)C(=O)NCC(=O)N[C@@H](CC(N)=O)C(=O)N1CCC[C@H]1C(=O)N[C@@H](CC(N)=O)C(=O)N[C@@H](Cc1c[nH]c2ccccc12)C(=O)NCC(=O)N[C@@H](CCCNC(=N)N)C(=O)N[C@@H](CO)C(=O)N[C@@H](Cc1c[nH]c2ccccc12)C(=O)N[C@@H](Cc1ccc(O)cc1)C(=O)N[C@@H](CC(N)=O)C(=O)N[C@@H](CCC(N)=O)C(=O)N[C@@H](CCCNC(=N)N)C(=O)N[C@@H](Cc1ccccc1)C(=O)N[C@@H](CCCCN)C(N)=O)[C@@H](C)O` (H-RIKPRKGYTRGC(S(CH2)2OCO2(CPT-20-yl))GNPNWGRSWYNQRFK-NH2), the Activity entry is on record as “Non-Toxic” in data set [1]; “Non-Toxic” in data set [3]; 39.4% with SK-BR-3 [4]; “Non-Toxic” in data set [6]; “Non-Toxic” in data set [7]; 0.26% with SK-BR-3 [8]. The Activity is on record as 0.64% with SK-BR-3 [9] and 10.8% in the data set with SK-BR-3 [11]. The half-life in data set [2] turned out to be 15 min. The IC50 turned out to be 7.6 µM with MDA-MB-231 and 3.29 µM in the data set on NCI-N87. For the same molecule, the hemolysis at 100 µM in [12] is less than 10%. The Drug metabolism entry in [10] is reported as “Metabolite_Detected”.
